# Test results: article PMC12591170, “Glabridin‐Gold(I) Complex as a Novel Immunomodulatory Agent Targeting TrxR and MAPK Pathways for Synergistic Enhancement of Antitumor Immunity” (Advanced Science, 2025)
# Assays:
# immature DCs = experiment: DC maturation assay with medium of treated Hepa1-6 cells; assay type: cell-based, C57BL/6 mouse; details: 24 h
# Procedure: The monocytes were extracted from the leg bone marrow of a C57BL/6 mouse and incubated in the 1640 complete medium with rmGM‐CSF (20 ng mL^−1) and IL‐4 (20 ng mL^−1). The medium was replaced partially every other day, and immature DCs were differentiated after 7 days. […] The medium from treated Hepa1‐6 cells was collected and coincubated with the differentiated DCs for 24 h. After cells collection, the coincubated DCs were labeled with CD11c antibody, CD80 antibody and CD86 antibody. Then, the DC maturation ratio was analyzed by a flow cytometer.
# HepG2 cells [1] = experiment: ROS levels assay (DHE, DCFH-DA); assay type: cell-based, human; details: HepG2, 6 h, DHE and DCFH-DA probes
# Procedure: HepG2 cells were seeded in 12‐well plate (5 × 10^4 cells per well). 4 mM N‐acetylcysteine (NAC) was applied for 1 h pretreatment. DMF (0.1%), AF (4 µM) or different concentrations of 6d (2, 4, 8 µM) were added in the wells for 6 h incubation. 10 µM DHE or DCFH‐DA (dissolved in DMEM) probes were applied for 30 min staining. The cells were photographed by the fluorescence microscopy after washing twice.
# [2] = system: immune cells in Hepa1-6 tumor and spleen tissue; experiment: In vivo immune cell and marker analysis (flow cytometry, immunofluorescence, immunohistochemistry); parameters: species or system C57BL/6 mice
# Procedure: (§3) All mice were 6–8 weeks old males and procured from Hangzhou Medical College, located in Hangzhou, China. […] 2 × 10^6 Hepa1‐6 cells in 100 µL DMEM were subcutaneously seeded in underarms of C57BL/6 mice. […] Meanwhile, the mice weights and tumor volume were recorded, and the calculation formula of tumor volume was Volume = Width^2 × Length/2. After 13 days, all mice were sacrificed for collection of tumors, hearts, livers, spleens, lungs and kidneys. Collagenase IV (1 mg mL^−1) and DNase I (1 µg mL^−1) were applied to digest a part of the tumor tissue into cell suspension, and lysis buffer was used to remove red blood cells. The prepared cells above were stained with antibodies (anti‐CD3e‐FITC, and anti‐CD8a‐PE; anti‐CD11c‐APC, anti‐CD80‐PE, and anti‐CD86‐FITC; anti‐CD45‐Percp, anti‐CD11b‐APC, and anti‐Ly‐6G/Ly‐6C(Gr‐1)‐FITC; anti‐CD11b‐APC, anti‐CD206‐PE, and CD86‐FITC). CD3^+CD8^+ T cells, CD80^+CD86^+ DCs, CD11b^+Gr‐1^+ MDSCs, CD206^−CD86^+ M1‐type macrophages and CD206^+CD86^− M2‐type macrophages were analyzed by flow cytometry. Then, another part of tumor tissues were fixed with 4% paraformaldehyde, embedded in paraffin, cut into slices and stained with antibodies for immunofluorescence and immunohistochemistry analysis.
# Hepa1-6 cells = experiment: MTT antiproliferative assay, Hepa1-6; assay type: cell-based; details: Hepa 1-6 cells
# Procedure: (§1) All cells were incubated at 37 °C by DMEM complete medium (containing 1% penicillin−streptomycin and 12% FBS) in 5% CO2 incubator. 2–5 × 10^3 cells were cultured in 96‐well plates and each well contained 100 µL complete medium. OXA was dissolved in water, and all other complexes were dissolved in DMF. After cells adhered in the wells, different concentrations of complexes were diluted in 100 µL complete medium and added in the wells. The final volume in the each well was 200 µL and the content of DMF was maximum 0.5%. After 72 h incubation, the antiproliferative activity was tested by MTT assay.
# phosphorylated Akt = experiment: Western blot of phosphorylated Akt in HepG2; assay type: cell-based, human; details: HepG2, 24 h; GLA at 8 µM
# Procedure: (§2) HepG2 cells were incubated in 6 cm culture dishes and treated with different complexes. The treated cells were lysed with lysis buffer (RIPA:PMSF:phosphatase inhibitor:protease inhibitor = 100:1:1:1). The lysed cells were further broken by sonication, and proteins were isolated by centrifugation. The protein concentrations were detected by BCA assay. 10% SDS PAGE gel was usually applied to separate the different kDa of proteins, and more than 200 kDa of proteins were separated using 8% SDS PAGE gel. After seperation, proteins were transferred onto polyvinylidene difluoride (PVDF) membranes. The target proteins were labeled by various specific primary antibodies at 4 °C overnight. Then, the membranes were treated with anti‐rabbit or anti‐mouse secondary antibody for 2 h. Tris buffered saline with tween 20 (TBST) was applied to wash the membranes after each operation above. The target proteins’ bands were detected by the enhanced chemiluminescence (ECL) procedure.
# Hepa1-6 tumors = experiment: In vivo antitumor assay, Hepa1-6 tumors; parameters: species or system C57BL/6 mice
# Procedure: as §3
# [3] = mouse, in vivo
# HepG2 cells [4] = experiment: DAMPs / ICD effect (CRT, HMGB1, ATP release); assay type: cell-based, human
# Procedure: 6‐well plate was applied to incubate 2 × 10^5 HepG2 cells. […] After treatment, the liquid was collected for extracellular ATP release assay by ATP Assay kit.
# as §2
# 5 × 10^4 HepG2 cells were treated with complexes in 24‐well plates for 24 h. Subsequently, cells were fixed with 4% paraformaldehyde. Various specific antibodies were added for incubation at 4 °C overnight after cells were permeabilized with Triton X‐100 (except for membrane proteins) and blocked with BSA. Then, the cells were incubated with fluorescently‐labeled secondary antibodies in darkness for 2 h. After that, DAPI was added to stain nuclear in darkness. PBS was applied for washing after each operation above (Tris buffered saline (TBS) was applied for washing if phosphorylated protein was analyzed). The cell images were captured by the fluorescence microscopy.
# [5] = system: MAPK pathway (phosphorylated MEK1/2 and ERK1/2); experiment: Western blot of MAPK pathway in HepG2; assay type: cell-based, human; details: HepG2, 24 h
# Procedure: as §2
# HepG2 cells [6] = experiment: MTT antiproliferative assay, HepG2; assay type: cell-based, human
# Procedure: as §1
# MEK1/2 = experiment: CETSA and ITDR assay, MEK1/2; assay type: binding, human; details: HepG2 proteins, 8 µM, ITDR at 78 °C
# Procedure: The treated HepG2 cells in 10 cm culture dishes were collected and washed with PBS. The collected cells were repeatedly frozen and thawed for 3 times by liquid nitrogen and 37 °C water bath. Then, proteins were isolated by centrifugation. The isolated proteins were divided into different tubes and incubated with same concentration of 6d at different temperature. Western blot was applied for CETSA by analyzing the band intensity of different temperature groups.
# The temperature, which results in significant band differences between 6d and control group, was selected for ITDR assay. The isolated proteins were divided into different tubes and incubated with different concentration of 6d at same temperature. The binding between 6d and target protein was assessed by analyzing the band intensity of different concentration groups.
# [7] = system: MAPK pathway (phosphorylated MEK1/2 and ERK1/2); experiment: In vivo MAPK pathway in tumor tissue; parameters: species or system C57BL/6 mice; details: western blot, day 13
# [8] = flow cytometry and immunofluorescence
structure (smiles),measurement,setting,value
CCn1ccn(CCCCCOc2ccc([C@@H]3COc4c(ccc5c4C=CC(C)(C)O5)C3)c(OCCCCCn3ccn(CC)[c]3=[Au][Br])c2)[c]1=[Au][Br] [6d],DC maturation,immature DCs,significantly induced DC maturation
same,ROS level,HepG2 cells [1],elevated ROS level
same,DC maturation in spleen and tumor tissues,[2]; [8],induced DC maturation
same,macrophage polarization in tumor,[2]; [8],significantly promoted M1‐type macrophage polarization
same,T lymphocyte infiltration in tumor,[2]; flow cytometry and immunohistochemistry,promoted T lymphocyte infiltration
same,Arg-1 expression in tumor tissue,[2]; immunofluorescence,downregulation
same,CRT exposure in tumor tissue,[2]; immunofluorescence,promoted CRT exposure
same,GzmB expression in tumor tissue,"[2]; immunofluorescence, OXA vs model group, 6d vs OXA group",significantly upregulated GzmB expression
same,MDSC infiltration in tumor,"[2]; vs model group, 13 days",reducing the infiltration
same,Treg infiltration in tumor (Foxp3),"[2]; vs model group, 13 days",reducing the infiltration
same,times more toxic than GLA,Hepa1-6 cells,34 times
same,Akt phosphorylation (western blot),phosphorylated Akt,inhibited Akt phosphorylation
same,tumor volume growth vs model group,"Hepa1-6 tumors; after 11 days of treatment, 5 mg kg^−1 i.p. every two days",significant reduction in tumor volume growth
same,tumor growth vs model group,"Hepa1-6 tumors; after 13 days, 6d and OXA 5 mg kg^−1, GLA 10 mg kg^−1, i.p. every two days",significant tumor growth inhibition
same,safe dose,[3],5 mg/kg
same,time required for ATP release,"HepG2 cells [4]; HepG2, 8 µM, ATP assay kit",48 h
same,CRT expression (western blot),"HepG2 cells [4]; HepG2, 24 h",CRT upregulation
same,HMGB1 expression (western blot),"HepG2 cells [4]; HepG2, 24 h",HMGB1 downregulation
same,"ERK1/2 phosphorylation (western blot, Figure S49)",[5],downregulated ERK1/2 phosphorylation
same,phosphorylation of MEK1/2 and ERK1/2 (western blot),[5],significantly inhibited
same,IC50,"HepG2 cells [6]; 72 h MTT assay, Mean ± SD",2.54 ± 0.13 µM
same,times more toxic than GLA,HepG2 cells [6]; HepG2 cells,16 times
same,"binding to MEK1/2 (CETSA, ITDR)",MEK1/2,significant binding
same,MAPK pathway activation (phosphorylation of MEK1/2 and ERK1/2) in tumor tissue,[7],significantly inhibited
